Experimental data reported in the supplement of paper PMC10307832.

Assays:
Assay in all cases: relative viability (nuclei count vs DMSO), 5 days (fraction); higher = more cells survive
[1] = compound: C1COCCN1C2=CC(=O)C3=C(O2)C(=CC=C3)C4=CC=CC5=C4SC6=CC=CC=C56
In short: (§1)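 Viability here means nuclei in treated wells divided by nuclei in vehicle wells, reported as the median across plates. Only plates with control CV below 25% and at least one doubling passed. Lung cancer cell lines in 1536-well plates were exposed to five √10-spaced library-drug doses for 5 days and counted from 4× Hoechst images in MetaXpress.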

[2] = compound: CCN(CC)CCCCNc1ncc2cc(-c3cc(OC)cc(OC)c3)c(NC(=O)NC(C)(C)C)nc2n1
In short: as §1

[3] = compound: O=c1cc(-c2cccc3c2Sc2ccccc2S3)oc(N2CCOCC2)c1
In short: as §1

Zibotentan = compound: COc1nc(C)cnc1NS(=O)(=O)c1cccnc1-c1ccc(-c2nnco2)cc1 [Zibotentan]
In short: as §1

PRIMA-1MET = compound: COCC1(CO)C(=O)C2CCN1CC2 [PRIMA-1MET]
In short: as §1

Cell Line | relative viability ([1]; 0.01 µM) | relative viability ([1]; 0.03162 µM) | relative viability ([1]; 0.1 µM) | relative viability ([1]; 0.3162 µM) | relative viability ([1]; 1 µM) | relative viability ([2]; 0.01 µM) | relative viability ([2]; 0.03162 µM) | relative viability ([2]; 0.1 µM) | relative viability ([2]; 0.3162 µM) | relative viability ([2]; 1 µM) | relative viability ([3]; 0.08 µM) | relative viability ([3]; 0.253 µM) | relative viability ([3]; 0.8 µM) | relative viability ([3]; 2.53 µM) | relative viability ([3]; 8 µM) | relative viability (Zibotentan; 0.08 µM) | relative viability (Zibotentan; 0.253 µM) | relative viability (Zibotentan; 0.8 µM) | relative viability (Zibotentan; 2.53 µM) | relative viability (PRIMA-1MET; 0.2 µM) | relative viability (PRIMA-1MET; 0.6325 µM) | relative viability (PRIMA-1MET; 2 µM) | relative viability (PRIMA-1MET; 6.325 µM) | relative viability (PRIMA-1MET; 20 µM)
PC-3 [JPC-3] | 0.965 | 1.01 | 0.91 | 1.03 | 0.977 | 1.1 | 1.02 | 1.12 | 1.23 | 0.911 | 0.99 | 1.05 | 1.02 | 0.943 | 1.08 | 1.06 | 0.979 | 1.05 | 1.06 | 1.16 | 1 | 0.997 | 1.07 | 0.997
NCI-H650 | 0.909 | 1.07 |  | 1.08 | 0.884 | 0.836 | 0.926 | 1.19 | 0.983 | 0.888 | 0.979 | 0.857 | 1.01 | 0.76 | 1.1 | 1.02 | 0.792 | 0.988 | 0.912 | 1.24 |  | 0.913 | 1.03 | 0.128
NCI-H441 | 1.1 | 0.977 | 1.08 | 0.938 | 1.05 | 1.05 | 1.08 | 1.25 | 1.12 | 0.995 | 1.02 | 1.27 | 1.23 | 0.971 | 1.1 | 1.11 | 0.828 | 1.3 | 0.985 | 1 | 0.87 | 0.812 | 0.99 | 0.713
201T | 0.988 | 0.989 | 1.01 | 0.954 | 0.953 | 0.976 | 0.972 | 1.01 | 0.954 | 0.898 | 0.952 | 0.971 | 0.844 | 0.944 | 1.03 | 1.01 | 0.968 | 0.986 | 0.978 | 1.07 | 0.93 | 0.758 | 1.01 | 0.987
H3255 | 0.926 | 0.96 | 0.95 | 1.05 | 0.812 | 0.999 | 0.938 | 1.07 | 1.12 | 0.978 | 0.929 | 0.917 | 0.994 | 0.994 | 1.19 | 0.981 | 1.03 | 1.06 | 0.938 | 0.992 | 0.89 | 0.938 | 0.989 | 0.952
NCI-H1355 | 0.991 | 1.04 | 0.74 | 1.03 | 0.928 | 1.08 | 0.938 | 1.04 | 1.11 | 0.939 | 0.955 | 1.13 | 0.837 | 0.904 | 0.953 | 1 | 0.984 | 0.955 | 1 | 0.955 | 0.908 | 0.894 | 0.973 | 0.927
LU99A | 0.957 | 1.03 | 1.02 | 0.888 | 0.997 | 0.888 | 0.972 | 0.997 | 1.01 | 0.899 | 0.901 | 0.935 | 1.01 | 1.02 | 0.997 | 1.06 | 0.912 | 0.938 | 0.89 | 0.939 | 0.852 | 0.822 | 0.935 | 0.508
IA-LM | 0.997 | 0.894 | 0.96 | 0.862 | 0.825 | 1.02 | 0.879 | 0.916 | 1.25 | 0.883 | 0.987 | 1.05 | 0.887 | 0.805 | 1.12 | 0.937 | 0.938 | 1 | 0.972 | 0.995 | 0.813 | 1.02 | 1.01 | 0.958
EBC-1 | 1.04 | 0.965 | 0.928 | 0.932 | 0.917 | 1.11 | 0.988 | 1.06 | 1.24 | 0.953 | 1.02 | 1.07 | 0.98 | 0.929 | 0.779 | 0.944 | 0.991 | 1.06 | 1.09 | 1.09 | 0.998 | 0.933 | 0.987 | 0.811
HCC-44 | 0.981 | 1.04 | 1.01 | 0.979 | 0.933 | 0.982 | 0.976 | 1.07 | 1.05 | 1.06 | 0.956 | 1.04 | 0.919 | 0.905 | 1.04 | 1.07 | 0.935 | 0.978 | 0.986 | 1.05 | 0.921 | 1.04 | 0.922 | 0.974
NCI-H460 | 0.971 | 0.993 | 1.01 | 1 | 0.989 | 0.994 | 1.05 | 1.14 | 1.09 | 0.959 | 1 | 1.13 | 0.918 | 0.935 | 1.08 | 1.04 | 0.838 | 0.926 | 0.995 | 1.01 | 0.859 | 0.86 | 1.02 | 0.592
ABC-1 | 0.917 | 1.16 | 1.03 | 1.04 | 0.954 | 0.957 | 0.838 | 1.25 | 1.07 | 0.869 | 0.922 | 1.09 | 0.808 | 0.976 | 1.12 | 1.06 | 0.753 | 0.96 | 1 | 0.953 | 0.621 | 0.903 | 0.829 | 0.247
CAL-12T | 0.924 | 0.991 | 1.03 | 1.05 | 0.854 | 0.901 | 1.03 | 1.04 | 1.04 | 0.974 | 0.94 | 1.06 | 0.952 | 0.955 | 0.883 | 0.965 | 0.918 | 0.942 | 1.03 | 0.946 | 0.924 | 1.02 | 0.934 | 0.352
NCI-H1666 | 0.996 | 0.959 | 1.01 | 1.02 | 0.953 | 0.942 | 0.993 | 1 | 1.17 | 0.973 | 0.94 | 1.09 | 1.02 | 0.911 | 1 | 1.02 | 0.879 | 1.03 | 1.06 | 0.993 | 0.868 | 0.962 | 0.938 | 0.942
